Laboratory results from article PMC12598866, “A Comparative Study of Virucidal and Virustatic Multivalent Entry Inhibitors” (The Journal of Physical Chemistry. B, 2025).
Where two headings read alike, the source gives them in different places.

Key:
[1] = system: H3N2; assay: Influenza inhibition assay (ICC on MDCK cells, pretreatment); type: cell-based; settings: Influenza A virus
[2] = system: HSV-2; assay: HSV-2 virucidal assay; type: cell-based, herpes simplex virus type 2; settings: virucidal titration at 90–99% viral inhibition concentration, Vero cells
[3] = CMC assay (conductivity method); type: physicochemical; settings: in water
Procedure: The CMC of antiviral compounds was measured by the conductivity method. Antiviral compounds were diluted into water at different concentrations, and the conductivity (μS/cm) was measured at each concentration with a conductivity meter (Mettler Toledo, Switzerland). The CMC was identified as the point on the conductivity-concentration plot where the slope changed.

[4] = system: HSV-2; assay: HSV-2 inhibition assay (plaque reduction on Vero cells, pretreatment); type: cell-based, herpes simplex virus type 2; settings: Human alphaherpesvirus 2, Vero, pretreatment condition
[5] = biological target: T1, BSA (Bos taurus, UniProt P02769); assay: Isothermal titration calorimetry with BSA; type: binding, bovine; settings: ITC, H2O
T1 construct: purchased Sigma-Aldrich

[6] = system: H1N1 clinical; assay: Influenza inhibition assay (ICC on MDCK cells); type: cell-based; settings: Influenza A virus, dose–response
[7] = Cytotoxicity assay on Vero cells (MTS); type: cell-based; settings: African green monkey
Procedure: Cytotoxicity assay was performed on the Vero cell line with the MTS assay. The cells were plated for 24 h in DMEM medium containing 10% FBS and 1% penicillin/streptomycin with a seeding density of 2 × 10^4 per well in a 96-well plate. […] Then, the cells were washed with PBS twice, followed by the addition of 20 μL MTS reagents together with 80 μL DMEM medium. They were then incubated at 37 °C for 4 h. The cell viability was checked by absorbance at 490 nm with a plate reader.

[8] = Cytotoxicity assay for MDCK (MTT); type: cell-based; settings: dog, MDCK cells
Procedure: MTT assay was used to evaluate the cytotoxicity on MDCK cells. 10^4 cells per well were seeded in a 96-well plate 1 day before the assay. A dose range of each drug (from 4.11 μM to 1000 μM) was added to the cells in serum-free medium for MDCK cells. The antivirals were incubated on the cells for 24 h at 37 °C. After incubation, the cells were washed, and MTT reagent (Promega) was added to the cells for 4 h at 37 °C according to the manufacturer’s instructions. The cells were then washed, and 50 μL of DMSO was added to free the reagent. Subsequently, the absorbance was read at 579 nm. Percentages of viability were calculated by comparing the absorbance in treated wells and untreated conditions.

[9] = Partition coefficient octanol/water (UV-vis); type: physicochemical
Procedure: UV–vis spectroscopy was employed first to determine the correct dilution of all compounds. The seven compounds in this study were B3C11SO4, B3C11SO3, B3C6SO3, B3C6SO4, C4C11SO4, C4C11SO3, and C4C3SO3. The protocol is the same for all the compounds: in the beginning, all compounds were dissolved in water at a concentration of 1 mg/mL. The solution was put into a quartz cuvette and then into the UV–vis spectrometer, where the absorbance from wavelengths 600 to 190 nm was investigated. All of the samples presented a peak in absorbance around 200 nm. The samples were diluted further until the absorbance peak reached values near 0.90.
A biphasic solution composed of 1.5 mL of a water solution of antiviral +1.5 mL of octanol was thoroughly mixed for 60 min. After the mixing, the two phases were separated by centrifugation for 1 min using a benchtop centrifuge at 5000 rpm. The water phase saturated in octanol and the octanol phase saturated with water were extracted and characterized by UV–vis spectrometry.
The partition coefficient (log P) was then calculated using formula : logP=log(Absorbanceofoctanolphase/Absorbanceofwaterphase) 1

[10] = system: HSV-2; assay: Growth of viruses in the presence of compounds (posttreatment), HSV-2; type: cell-based, herpes simplex virus type 2; settings: posttreatment condition, Vero cells
[11] = system: HSV-2; assay: HSV-2 inhibition assay (plaque reduction on Vero cells, pretreatment); type: cell-based, herpes simplex virus type 2; settings: for IC50: Human alphaherpesvirus 2, Vero, dose–response, Vero cells; for IC99: HSV-2 inhibition, concentration intended to inhibit infection by at least 90 and 99%
Procedure: The inhibitory effect of compounds on HSV-2 was evaluated by plaque reduction assay. Vero cells were plated 24 h before the experiment in 24-well plates with a seeding density of 10^5 cells/well. Serial dilutions of compounds in DMEM medium (2% FBS, 1% P/S) were prepared, followed by the addition of aliquots of HSV-2 such that the final titer of the virus was 200 pfu/mL (with MOI = 0.0005). Compounds/virus mixtures were incubated at 37 °C for 1 h and added to the cells (250 μL/well). Followed by incubation at 37 °C for 1 h, the viral inoculum was removed. The cells were overlaid with DMEM medium containing 1.2% methylcellulose, 2% FBS, and 1% P/S. After 48 h of incubation at 37 °C, 5% CO2, the cells were fixed and stained with 0.1% crystal violet in 20% ethanol. Finally, the plaques were counted. Each group of experiments in the inhibition assay was performed in triplicate. The concentration producing a 50% reduction in plaque formation was determined using Prism 10 software (GraphPad Software, USA) by comparing compound-treated and untreated cells. Infectivity was calculated as the number of plaques in compound-treated cells/number of plaques in untreated cells × 100%.

[12] = system: HSV-1
[13] = system: HSV-1; assay: HSV-1 inhibition assay (plaque reduction on Vero cells); type: cell-based, herpes simplex virus type 1; settings: Human alphaherpesvirus 1, dose–response
Procedure: The inhibitory effect of compounds on HSV-1 was evaluated by plaque reduction assay. Vero cells were plated 24 h before the experiment in 24-well plates at a density of 10^5 cells/well. Serial dilutions of compounds in DMEM medium (2% FBS, 1% P/S) were prepared, followed by the addition of aliquots of HSV-1 such that the final titer of the virus is […] (with MOI = 0.0005). Compounds/virus mixtures were incubated at 37 °C for 1 h and added to the cells (250 μL/well). Followed by incubation at 37 °C for 1 h, the viral inoculum was removed. The cells were overlaid with DMEM medium containing 1.2% methylcellulose, 2% FBS, and 1% P/S. After 3 days of incubation at 37 °C, 5% CO2, the cells were fixed and stained with 0.1% crystal violet in 20% ethanol, and plaques were counted. Each group of experiments in the inhibition assay was performed in triplicate. The concentration producing a 50% reduction in plaque formation was determined using the Prism 10 software (GraphPad Software, USA) by comparing compound-treated and untreated cells. Infectivity was calculated as the number of plaques in compound-treated cells/number of plaques in untreated cells × 100%.

[14] = biological target: glycoprotein D (gD) of HSV; assay: Isothermal titration calorimetry with glycoprotein D; type: binding; settings: ITC, 25°C
Procedure: Isothermal titration calorimetry (ITC) experiments were conducted using ITC200 instruments (GE Healthcare, USA) equipped with a 200 μL sample cell and a 40 μL syringe. Thirteen injections were applied. The first data point was excluded. BSA protein and viral protein concentrations in the cell were approximately 50 μM and 1 mg/mL, respectively, and ligand concentrations in the syringe were roughly 2 mM. They were centrifuged at 2000g for 2 min to remove bubbles. The titration was performed at 25 or 37 °C, with data analyzed using MicroCal PEAQ ITC software. Baseline correction was applied, and Nitpic/Sedphat was used for automated integration to ensure precise binding parameter determination.

[15] = system: Flu B; assay: Influenza inhibition assay (ICC on MDCK cells); type: cell-based; settings: dose–response
[16] = system: H1N1N09; assay: Influenza inhibition assay (ICC on MDCK cells); type: cell-based, Influenza A/Netherlands/602/2009 (H1N1); settings: Influenza A virus, dose–response
[17] = system: HSV-2; set-up: method as in Zhu et al., 2024 (citation number not given); settings: earlier paper of the authors on benzene-core MEIs; ref Zhu et al., 2024 (citation number not given); read-out: IC50 against HSV-2; cited from earlier work
[18] = dose–response, read-out: IC50 H3N2
[19] = pretreatment condition, read-out: pretreatment IC50, H3N2

T1 sequence (P02769 25-607): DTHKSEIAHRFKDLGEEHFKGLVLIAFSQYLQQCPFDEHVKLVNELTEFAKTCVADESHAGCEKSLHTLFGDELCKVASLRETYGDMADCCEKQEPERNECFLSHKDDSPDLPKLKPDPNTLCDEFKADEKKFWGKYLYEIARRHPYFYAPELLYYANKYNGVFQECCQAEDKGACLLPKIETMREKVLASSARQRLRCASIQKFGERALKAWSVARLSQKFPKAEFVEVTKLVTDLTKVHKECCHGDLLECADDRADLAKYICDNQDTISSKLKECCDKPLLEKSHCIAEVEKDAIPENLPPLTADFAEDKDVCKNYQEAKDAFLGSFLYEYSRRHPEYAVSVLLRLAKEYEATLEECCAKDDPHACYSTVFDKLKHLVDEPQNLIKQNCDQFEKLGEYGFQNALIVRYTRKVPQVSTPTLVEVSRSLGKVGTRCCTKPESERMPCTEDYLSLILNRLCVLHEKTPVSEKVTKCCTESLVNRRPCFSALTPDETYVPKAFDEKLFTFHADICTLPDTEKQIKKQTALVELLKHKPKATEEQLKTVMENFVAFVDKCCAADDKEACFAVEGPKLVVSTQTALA

Row | SMILES | IC50 [1, 18] [µM] | IC50 [1, 19] [µM] | Virucidal activity, HSV-2 [2] | CMC [3] [µM] | IC50 [4] [µM] | N (binding sites, BSA) ([5]; 25 °C (Table 5)) | ΔG (BSA) ([5]; 25 °C (Table 5)) | ΔH (BSA) ([5]; 25 °C (Table 5)) | –ΔTS (BSA) ([5]; 25 °C (Table 5)) | IC50 [6] [µM] | CC50 at 48 h [7] [µM] | CC50 at 24 h [8] [µM] | logP [9] | IC50 ([10]; Human alphaherpesvirus 2, Vero) [µM] | IC50 [11] [µM] | Virucidal activity, V-1 [12] | IC50 [13] [µM] | Kd [14] [µM] | IC50 [15] [µM] | IC50 [16] [µM] | also measured
1 | O=S(=O)(O)CCCCCCSCc1cc(CSCCCCCCS(=O)(=O)O)cc(CSCCCCCCS(=O)(=O)O)c1 [B3C6SO3] | > 1000 | > 1000 | S | 882.2 ± 18.9 | 487 | no binding | no binding | no binding | no binding | > 1000 | > 1000 | > 1000 | -2.39 | 180 | 487.3 ± 2.19 | S | 502.3 ± 2.15 | 14.2 | > 1000 | > 1000 | K d (BSA) ([5]; 25 °C (Table 5)): no binding; IC50 [10]: 181 ± 2.06 µM
2 | O=S(=O)(O)CCCSCc1cc2c(cc1CSCCCS(=O)(=O)O)OCCOCCOc1cc(CSCCCS(=O)(=O)O)c(CSCCCS(=O)(=O)O)cc1OCCOCCO2 [C4C3SO3] | > 1000 | > 1000 | S | 462.69 ± 57 | 173.4 ± 1.1 | 0.5 | –5.73 kcal/mol | –7.34 kcal/mol | 1.61 kcal/mol |  | > 1000 | > 1000 | -2.45 | 69.1 ± 1.01 | 173.4 ± 1.1 | S | 551.9 ± 2 |  | > 1000 | > 1000 | Kd ([5]; 25 °C (Table 5), read-out: K d (BSA)): 63 µM; -∆TS (BSA) ([5]; 25 °C (Table S3)): 1.61 kcal/mol; N (BSA) ([5]; 25 °C (Table S3)): 0.5; ∆G (BSA) ([5]; 25 °C (Table S3)): -5.73 kcal/mol; ∆H (BSA) ([5]; 25 °C (Table S3)): -7.34 kcal/mol; -∆TS (BSA) ([5]; 37 °C (Table S3)): 24.6 kcal/mol; Kd ([5]; 37 °C (Table S3)): 52.1 µM; N (BSA) ([5]; 37 °C (Table S3)): 0.397; ∆G (BSA) ([5]; 37 °C (Table S3)): -6.08 kcal/mol; ∆H (BSA) ([5]; 37 °C (Table S3)): -30.6 kcal/mol; IC99 [11]: 446 ± 1.1 µM
3 | O=S(=O)(O)OCCCCCCSCc1cc(CSCCCCCCOS(=O)(=O)O)cc(CSCCCCCCOS(=O)(=O)O)c1 [B3C6SO4] | > 1000 | 346.9 ± 1.94 |  | 1390 ± 45.6 | 52.9 ± 1.9 |  |  |  |  | > 1000 | > 1000 | > 1000 | -1.79 | 56.9 ± 1.48 | 52.9 ± 1.9 |  | 208 ± 31.4 | 28.1 | > 1000 | 346.9 ± 1.94 | -∆TS (BSA) ([5]; 25 °C (Table S3)): 7.2 kcal/mol; Kd ([5]; 25 °C (Table S3)): 7.27 µM; N (BSA) ([5]; 25 °C (Table S3)): 1.69; ∆G (BSA) ([5]; 25 °C (Table S3)): -7.29 kcal/mol; ∆H (BSA) ([5]; 25 °C (Table S3)): -14.5 kcal/mol; -∆TS (BSA) ([5]; 37 °C (Table S3)): 0.938 kcal/mol; Kd ([5]; 37 °C (Table S3)): 1.4 µM; N (BSA) ([5]; 37 °C (Table S3)): 1.3; ∆G (BSA) ([5]; 37 °C (Table S3)): -7.99 kcal/mol; ∆H (BSA) ([5]; 37 °C (Table S3)): -8.93 kcal/mol; IC99 [11]: 1328 ± 1.9 µM; IC50 [17]: 78.4 µM
